How the values were obtained:
[1] = tested on: Escherichia coli; assay: treatment of human subject with urinary tract infection, enteric coated oral tablets; assay type: in vivo; conditions: two enteric coated tablets (350 mg each) orally every 8 hours for 4 days
Description: An enteric coated antimicrobial composition for oral administration, according to this invention, is made comprising the following core tablet:
The components are admixed into a bulk mixture. Compressed tablets are formed, using tabletting methods known in the art. The tablet is then coated with a suspension of methacrylic acid/methacrylic acid ester polymer in isopropanol/acetone. A human subject, having a urinary tract infection with Escherichia coli present, is orally administered two of the tablets, every 8 hours, for 4 days.

[2] = reported side effect; cited from earlier work
[3] = tested on: Streptococcus pneumoniae; conditions: human, lower respiratory tract infection with Streptococcus pneumoniae; 30 mg/mL suspension, approx. 2.0 mL intramuscular twice daily for approx. 14 days; after 4 days
Experimental: An antimicrobial composition for parenteral administration, according to this invention, is made comprising:
The above ingredients are mixed, forming a suspension. Approximately 2.0 mL of the suspension is systemically administered, via intramuscular injection, to a human subject suffering from a lower respiratory tract infection, with Streptococcus pneumoniae present. This dosage is repeated twice daily, for approximately 14 days.

## 7-[7-amino-8R-methyl-5-azaspiro[2.5]-octanyl]-1-cyclopropyl-1,4-dihydro-6-fluoro-8-methoxy-4-oxo-3-quinolinecarboxylic acid hydrochloride [Example 5]
[1]
  symptoms of the disease / eradication of the pathogen: Symptoms of the disease then subside

## COc1c(N2CCNC(C)C2)c(F)cc2c(=O)c(C(=O)O)cn(C3CC3)c12 (racemic) [gatifloxacin, (±)-1-cyclopropyl-6-fluoro-1,4-dihydro-8-methoxy-7-(3-methyl-1-piperazinyl)-4-oxo-3-quinoline carboxylic acid]
[2]
  clastogenicity: exhibit clastogenicity

## CC[C@@H]1[C@H](N)CN(c2nc3c(cc2F)c(=O)c(C(=O)O)cn3C2CC2)C[C@@H]1C.Cl [Example 12, 7-[3S-amino-4S-ethyl-5R-methyl-piperidinyl]-1-Cyclopropyl-1,4-dihydro-6-fluoro-4-oxo-1,8-naphthyridine-3-carboxylic acid hydrochloride]
[3]
  symptoms of the disease / eradication of the pathogen: symptoms of the disease subside
